Data published in patent publication EP1260509A1, “Uses of tocopherol esters” (Derma Developpement S.A.R.L., priority 2001, dated 2002).

What was measured:
tyrosine kinase = biological target: T1, tyrosine kinase (Homo sapiens, UniProt P14679); assay: Tyrosine kinase (tyrosinase) activity in human melanocytes, L-Dopamine substrate, absorbance at 475 nm; assay type: cell-based, humains; settings: hydroquinone 1 µg/mL (positive control), 72 h; témoin 0.044 ± 0.002
T1 construct: endogenous in cells; host or cells: human melanocytes (cultured)
T1 sequence (P14679 19-529): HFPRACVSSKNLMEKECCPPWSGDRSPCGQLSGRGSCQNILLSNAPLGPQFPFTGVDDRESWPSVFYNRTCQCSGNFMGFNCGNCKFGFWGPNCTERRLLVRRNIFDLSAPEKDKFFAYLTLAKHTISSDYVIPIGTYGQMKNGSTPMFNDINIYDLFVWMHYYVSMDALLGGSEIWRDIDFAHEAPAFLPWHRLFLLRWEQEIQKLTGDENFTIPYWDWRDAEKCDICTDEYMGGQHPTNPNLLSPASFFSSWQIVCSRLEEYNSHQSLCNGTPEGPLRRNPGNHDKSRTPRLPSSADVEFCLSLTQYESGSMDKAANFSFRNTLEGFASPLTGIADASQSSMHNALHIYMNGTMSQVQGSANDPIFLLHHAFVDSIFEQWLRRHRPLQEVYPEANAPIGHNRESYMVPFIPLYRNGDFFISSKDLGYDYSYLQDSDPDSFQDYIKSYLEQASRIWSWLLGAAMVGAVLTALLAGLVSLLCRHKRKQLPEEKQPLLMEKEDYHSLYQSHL
Experimental: Les mélanocytes humains sont ensemencés à la densité de 50 000 cellules/cm^2 dans des plaques multipuits. Les cellules sont incubées à 37°C en atmosphère humide contenant 5% (v/v) de CO2. Le milieu de culture est le MCDB 153 supplémenté par l'EGF (5 ng/mL) (Sigma), l'insuline (5 µg/mL)(Sigma), l'hydrocortisone (5 ng/mL)(Sigma),du sérum de veau foetal (SVF) à 5 % (v/v)( Gibco). Le milieu de culture est remplacé après 24 heures de culture et supplémenté par des antibiotiques (Peni-Strepto)(Gibco) à 1% (V/v) contenant les différentes concentrations d'un ester de tocophéryle avec un acide gras mono ou polyinsaturé ( 1, 10 et 100 µg/mL).
Une série « témoin positif» est constituée de cellules traitées à l'hydroquinone à 1 µg/mL.
Les cellules sont incubées pendant 72 heures à 37°C en atmosphère humide contenant 5% (v/v) de CO2. A la fin de la période d'incubation, le milieu de culture est prélevé et la couche cellulaire rincée deux fois avec du PBS. 450 µL de Triton X100 à 1% (v/v) dans le PBS sont ajouté dans chaque puits. On agite pendant 10 minutes puis on ajoute 50 µL de L-Dopamine à 10 mM dans du PBS sans Ca^++ ni Mg ^++
On laisse incuber pendant 1 heure à 37°C à l'abri de la lumière, puis on mesure l'absorption à 475 nm au spectrophotomètre. Tableau 1

[1] = tested on: fibroblastes de derme humain; assay: Mitochondrial activity of human dermal fibroblasts (rhodamine 123 fluorescence, semi-quantitative score); assay type: cell-based; settings: antimycine 0,5 µM (positive control), 72 h
Experimental: Les fibroblastes de derme humain sont ensemencées à la densité de 5000 cellules/cm^2 dans 500 µl de milieu IMDM supplémenté par du SVF 10% pendant 24 heures en atmosphère humide contenant 5% (v/v) de CO2
Après 24 heures, les cellules sont mises en contact avec les différentes concentrations d'un ester de tocophéryle avec un acide gras mono ou polyinsaturé ( 10, 50 et 100 µg/ml).
Une série « témoin positif» est constituée de cellules traitées à l'antimycine à 0,5 µM.
Principe : L'incorporation cellulaire de rhodamine 123 est la conséquence de la variation du potentiel transmembranaire mitochondrial. L'évaluation semi-quantitative de la respiration mitochondriale est basée sur l'intensité de la fluorescence à l'intérieur de la cellule.
Les cellules sont incubées pendant 72 heures à 37°C en atmosphère humide contenant 5% (v/v) de CO2. A la fin de la période d'incubation, le milieu de culture est prélevé et la couche cellulaire rincée deux fois avec du milieu IMDM puis mise dans 500 µl de tampon phosphate pH 7.2 contenant 0.1 mg/ml de rhodamine 123.
On laisse incuber pendant 15 minutes à 37 °C, puis on mesure la fluorescence de façon semi-quantitative à l'aide d'une échelle de cotation.
Echelle de cotation (Intensité de fluorescence) : 0 : cytoplasme non fluorescent, 1 : faible; 2 : moyennement intense; 3 : Importante; 4 : Très importante, tout le cytoplasme est fluorescent.

Compound	moyenne absorbance à 475 nm (tyrosine kinase)	cellules, intensité de fluorescence 4 : Très importante, tout le cytoplasme est fluorescent ([1]; témoin 12,3 ± 2,1)	cellules, intensité de fluorescence 0 : cytoplasme non fluorescent ([1]; témoin 17,7 ± 2,1)	cellules, intensité de fluorescence 1 : faible ([1]; témoin 21,0 ± 2,9)	cellules, intensité de fluorescence 2 : moyennement intense ([1]; témoin 25,0 ± 2,4)	cellules, intensité de fluorescence 3 : Importante ([1]; témoin 25,7 ± 3,1)
Oc1ccc(O)cc1 [hydroquinone]	0.024 ± 0.001	–	–	–	–	–
antimycine	–	10,7 ± 2,5	25,0 ± 4,1	16,3 ± 1,9	20,0 ± 1,6	13,3 ± 2,4
